According to paper PMC7751940, “Synthesis, characterization and evaluation of antidengue activity of enantiomeric Schiff bases derived from S-substituted dithiocarbazate” (Turkish Journal of Chemistry, 2020):
Where two headings read alike, the source gives them in different places.

Tests used:
MTT cytotoxicity assay = type: cell-based; conditions: African green monkey (Chlorocebus sp.), Vero cells (kidney), four days incubation, Table 4
Protocol: (§1) Aedes albopictus clone C6/36 cells were maintained to propagate the dengue virus type 2 (DENV 2); African green monkey ( Chlorocebus sp.) kidney Vero cells were grown for antiviral analysis. Both cells were grown in Eagle’s Minimum Essential Medium (EMEM) (Biowest LLC, Riverside, MO, USA) with 10% Fetal Bovine Serum (FBS) (Biowest LLC).
The 96-well plates were seeded with 100 µL of Vero cell suspension at a density of 1 × 10^5 cells / mL and the next day were treated with different dilutions of the synthesized compounds. Control wells were treated with only the vehicle media used to prepare the antiviral dilutions. Plates were incubated for four days at 37 °C. Following the addition of 15 μL of MTT (Sigma-Aldrich Corp., St. Louis, MO, USA) solution into each well, the plates were incubated at 37 °C for another 4 h. Subsequently, the medium was carefully aspirated from all the wells and 100 μL of DMSO was added to each well [26]. The optical density (OD) of the wells was measured at 570 nm using a 96-well plate reader (Tecan Group AG, Männedorf, Switzerland). The percentage cell viability was calculated against the untreated controls. Dose-response curves were plotted. Half maximal cytotoxic concentration (CC50) was calculated using Graph Pad Prism for Windows, Version 5 (GraphPad Software Inc., San Diego, CA, USA).

DENV 2 [1] = assay: CPE reduction-based antiviral assay (primary evaluation); type: cell-based, dengue virus type 2 (DENV 2); set-up: key: ++++ for total reduction; +++ for 75% reduction; ++ for 50% reduction; + for less than 50% reduction; -- for no reduction; conditions: DENV 2-infected Vero cells, treated after 1 h viral adsorption, graded per Kudi and Myint
Protocol: as §1
Ribavirin tablets (Copegus, 200 mg, Genentech, Inc., South San Francisco, CA, USA) were purchased and stock solutions were stored. Dilutions were prepared in 2% FBS (maintenance media) at the time of assay. TCID50 assay was employed to measure the titer of the virus stocks for antiviral evaluation following standard methods. The viral CPE was observed on the third and fourth days and observations were recorded based on the Reed–Muench method.
Plates were seeded with Vero cell suspension (100 µL) at a density of 1 × 10^5 cells/mL one day before the wells were treated with TCID50 (100 µL) dilution of the DENV 2 stock and untreated control wells were maintained in parallel. After 1 h of viral adsorption, unbound viruses were washed and different antiviral dilutions were added. These plates were further incubated for 4 more days and were observed daily. Observations were recorded on the third and fourth days. The wells were marked for CPE reduction according to the grading system defined by Kudi and Myint.

DENV 2 [2] = assay: Foci forming unit reduction assay (FFURA, secondary evaluation); type: cell-based, dengue virus type 2 (DENV 2); conditions: for Selectivity index CC50/IC50: CC50 (Vero, MTT) / IC50 (FFURA, DENV 2); for reduction in the number of foci: three different dilutions; for IC50: Dengue virus, 96 h, read-out: IC50 ± SE
Protocol: as §1
Antiviral activity was quantitatively validated by measuring the reduction in the number of DENV infectious foci after 4 days of treatment. DENV 2 infected Vero cells were treated with different antiviral dilutions supplemented with 2% FBS and 1.5% carboxymethyl cellulose (CMC). Virus foci were stained and visualized according to the published protocol. The number of foci was counted through stereomicroscope and virus titer was stated as foci forming unit (FFU). To calculate the antiviral activity of antidengue compounds, the percentage reduction in foci (%RF) was calculated between the treated, and untreated wells maintained in parallel. The assay was repeated three times, dose-response curves were plotted and half […] inhibitory concentration (IC50) and selectivity index (SI) were calculated.

[3] = DENV 2 infected Vero cells, foci reduction after 4 days of treatment

Structure (SMILES) | CC50 at 4 days (MTT cytotoxicity assay) | CPE reduction (DENV 2 [1]) | Selectivity index CC50/IC50 (DENV 2 [2]) | reduction in the number of foci (DENV 2 [2]; DENV 2 infected Vero cells) | IC50 (DENV 2 [2]; [3]) | IC50 (DENV 2 [2]; Vero)
CC1(C)[C@@H]2CC[C@@]1(C)/C(=N/NC(=S)SCc1ccccc1)C2 [SBRCM, Benzyl (E)-2-((1R,4R)-1,7,7-trimethylbicyclo[2.2.1]heptan-2-ylidene)hydrazine-1-carbodithioate] | 81.7 ± 4.4 µM | ++ (++ for 50% reduction) | 10.4 | reduction in the number of foci appearance | 7.8 ± 4.5 µM | 
C=C(C)[C@@H]1CC=C(C)/C(=N/NC(=S)SCc2ccccc2)C1 [SBRCV, Benzyl (R,E)-2-(2-methyl-5-(prop-1-en-2-yl)cyclohex-2-en-1-ylidene)hydrazine-1-carbodithioate] | 28.5 ± 3.9 µM | + (+ for less than 50% reduction) |  |  |  | 
CC1(C)[C@H]2CC[C@]1(C)/C(=N/NC(=S)SCc1ccccc1)C2 [SBSCM, Benzyl (E)-2-((1S,4S)-1,7,7-trimethylbicyclo[2.2.1]heptan-2-ylidene)hydrazine-1-carbodithioate] | 87.2 ± 5.9 µM | ++ (++ for 50% reduction) | 12.8 | reduction in the number of foci appearance | 6.8 ± 2.3 µM | 
C=C(C)[C@H]1CC=C(C)/C(=N/NC(=S)SCc2ccccc2)C1 [SBSCV, Benzyl (S,E)-2-(2-methyl-5-(prop-1-en-2-yl)cyclohex-2-en-1-ylidene)hydrazine-1-carbodithioate] | 29.2 ± 6.4 µM | + (+ for less than 50% reduction) |  |  |  | 
CSC(=S)N/N=C1\C[C@H]2CC[C@]1(C)C2(C)C [SMRCM, Methyl (E)-2-((1R,4R)-1,7,7-trimethylbicyclo[2.2.1]heptan-2-ylidene)hydrazine-1-carbodithioate] | 88.4 ± 3.8 µM | ++ (++ for 50% reduction) | 12.8 | reduction in the number of foci appearance | 6.9 ± 1.2 µM | 
C=C(C)[C@@H]1CC=C(C)/C(=N/NC(=S)SC)C1 [SMRCV, Methyl (R,E)-2-(2-methyl-5-(prop-1-en-2-yl)cyclohex-2-en-1-ylidene)hydrazine-1-carbodithioate] | 31.1 ± 8 µM | -- |  |  |  | 
CSC(=S)N/N=C1\C[C@@H]2CC[C@@]1(C)C2(C)C [SMSCM, Methyl (E)-2-((1S,4S)-1,7,7-trimethylbicyclo[2.2.1]heptan-2-ylidene)hydrazine-1-carbodithioate] | 88.7 ± 2 µM | ++ (++ for 50% reduction) | 14.3 | reduction in the number of foci appearance | 6.2 ± 3.2 µM | 
CSC(=S)N/N=C1\C(=O)[C@@]2(C)CC[C@@H]1C2(C)C [SMSCQ, Methyl (Z)-2-((1R,4S)-4,7,7-trimethyl-3-oxobicyclo[2.2.1]heptan-2-ylidene)hydrazine-1-carbodithioate] | 69.2 ± 5.9 µM | + (+ for less than 50% reduction) |  | reduction in the number of foci appearance |  | 6.8 ± 2.8 µM
C=C(C)[C@H]1CC=C(C)/C(=N/NC(=S)SC)C1 [SMSCV, Methyl (S,E)-2-(2-methyl-5-(prop-1-en-2-yl)cyclohex-2-en-1-ylidene)hydrazine-1-carbodithioate] | 24.5 ± 9.2 µM | -- |  |  |  | 
